In patent publication US20240174649A1, “CULLIN-RING E3 UBIQUITIN LIGASE 4 INHIBITOR COMPOUNDS AND METHODS OF THEIR USE” (ICAHN SCHOOL OF MEDICINE AT MOUNT SINAI, priority 2021, published 2024):

What was measured:
[1] = target: E3 (CUL4) (Homo sapiens (Human), UniProt Q13619); assay: E3 (CUL4) inhibition (Table 1); assay type: biochemical
Procedure, shortened: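 Two-step assay: Cdc34b-Ub thiol ester formation, then chase with ROC1-cullin mono-ubiquitination mix for 10 min at 37° C in 50 mM Tris-HCl pH 7.4, 0.5 mM DTT, 0.1 mg/ml BSA, 5 mM MgCl2, 2 mM ATP with compounds. 32P-Ub chain products resolved by SDS-PAGE and quantified by phospho-imaging.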

[2] = Liver microsome stability; assay type: in vitro ADME
Experimental: (§1) ADME studies on compounds #33-11 and KH-4-43 for “absorption, distribution, metabolism, and excretion” were carried out at CRO, BioDuro. Kinetic solubility, plasma and microsome stability in rat, mouse and human, as well as Caco-2 Permeability were examined.

[3] = In vitro stability in mouse, rat and human microsomes; assay type: in vitro ADME
Experimental: as §1

[4] = target: CRL1/SCF (Homo sapiens, UniProt Q13616)
[5] = system: ROC1-CUL4A CTD; assay: Ligand binding by Micro-Scale Thermophoresis (MST); parameters: species or system human; conditions: ratio of Kd
Experimental: E3 ligase complex (˜2 nmol) was labeled with fluorescent dye using Monolith NT Protein Labeling Kit Red-NHS (Nanotemper) in the presence of 20 mM MES pH 6.0 and 150 mM NaCl. Excess dye was removed using the included gravity flow column and eluted in storage buffer containing 20 mM Tris-HCl, pH 7.4, 150 mM NaCl, and 10% glycerol. The fluorescent E3 complex (˜0.01-0.06 μM) was mixed with increasing amount of compound in a buffer (20 μl) that contains phosphate-buffered saline, 0.1% TWEEN-20 and 2% prionex. Following incubation at room temperature for 30 min, the reaction mixture loaded into premium coated capillaries and analyzed in the Monolith NT.115 machine (Nanotemper). Thermophoresis was recorded for each sample and binding curve was generated and Kd was calculated using the included software. For reactions where significant ligand specific fluorescence quenching occurred (verified by manufacturer's SDS Denaturation-test protocol), the initial fluorescence quenching data was used directly to calculate the binding curve and Kd.

[6] = system: H1299; assay: Apoptosis, Annexin V flow cytometry; assay type: cell-based; conditions: Homo sapiens, NCI-H1299; H1299, Lung
Procedure, shortened: (§2)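 5×10^4 cells were seeded 24 h before treatment, then cultured with compound for 48 h. Pelleted cells were washed in Annexin V binding buffer (HEPES pH 7.4, with CaCl2) and stained in the dark with Annexin V-FITC (2 μg/ml) for 5 min. Apoptosis was read by flow cytometry.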

[7] = system: HCT116; assay: Apoptosis, Annexin V flow cytometry; assay type: cell-based; conditions: Homo sapiens, HCT-116; HCT116, Colon
Procedure, shortened: as §2

[8] = system: K562; assay: Apoptosis, Annexin V flow cytometry; assay type: cell-based; conditions: Homo sapiens; K562, CML
Procedure, shortened: as §2

[9] = system: MDA-MB-231; assay: Apoptosis, Annexin V flow cytometry; assay type: cell-based; conditions: Homo sapiens; MDA-MB-231, Breast
Procedure, shortened: as §2

[10] = system: ML-2; assay: Apoptosis, Annexin V flow cytometry; assay type: cell-based; conditions: Homo sapiens; ML-2, AML
Procedure, shortened: as §2

[11] = system: MOLT-4; assay: Apoptosis, Annexin V flow cytometry; assay type: cell-based; conditions: Homo sapiens; MOLT-4, ALL
Procedure, shortened: as §2

[12] = system: MV4-11; assay: Apoptosis, Annexin V flow cytometry; assay type: cell-based; conditions: Homo sapiens; MV4-11, AML
Procedure, shortened: as §2

[13] = system: NB-4; assay: Apoptosis, Annexin V flow cytometry; assay type: cell-based; conditions: Homo sapiens; NB-4, AML
Procedure, shortened: as §2

[14] = system: THP-1; assay: Apoptosis, Annexin V flow cytometry; assay type: cell-based; conditions: Homo sapiens, THP-1, THP-1, AML
Procedure, shortened: as §2

[15] = system: U2OS; assay: Apoptosis, Annexin V flow cytometry; assay type: cell-based; conditions: Homo sapiens, Bone
Procedure, shortened: as §2

E3 (CUL4), sequence (Q13619 whole entry): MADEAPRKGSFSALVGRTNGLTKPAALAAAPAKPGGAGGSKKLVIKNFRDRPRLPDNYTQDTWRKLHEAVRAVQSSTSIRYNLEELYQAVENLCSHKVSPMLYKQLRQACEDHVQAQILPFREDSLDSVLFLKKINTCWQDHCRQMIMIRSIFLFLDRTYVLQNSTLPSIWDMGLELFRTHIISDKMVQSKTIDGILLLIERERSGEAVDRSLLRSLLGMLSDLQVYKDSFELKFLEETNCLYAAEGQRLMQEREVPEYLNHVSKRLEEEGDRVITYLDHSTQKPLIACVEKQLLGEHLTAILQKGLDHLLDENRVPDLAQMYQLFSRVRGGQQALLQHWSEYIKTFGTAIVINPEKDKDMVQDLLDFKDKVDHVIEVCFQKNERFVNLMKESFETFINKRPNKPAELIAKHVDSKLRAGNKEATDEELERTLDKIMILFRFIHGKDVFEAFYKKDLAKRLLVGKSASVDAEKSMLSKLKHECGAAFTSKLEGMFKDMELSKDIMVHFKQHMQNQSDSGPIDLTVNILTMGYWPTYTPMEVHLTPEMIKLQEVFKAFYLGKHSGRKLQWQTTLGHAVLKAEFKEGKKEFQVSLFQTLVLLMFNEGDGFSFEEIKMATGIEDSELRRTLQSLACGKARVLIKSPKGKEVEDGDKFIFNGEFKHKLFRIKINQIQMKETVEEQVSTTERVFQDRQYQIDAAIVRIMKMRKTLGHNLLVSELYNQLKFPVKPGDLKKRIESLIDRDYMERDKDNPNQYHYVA
E3 (CUL4), sequence (P62877 whole entry partner): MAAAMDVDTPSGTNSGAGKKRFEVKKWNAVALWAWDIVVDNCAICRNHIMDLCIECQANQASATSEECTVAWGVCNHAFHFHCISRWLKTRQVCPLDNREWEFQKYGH

SMILES: O=c1c(-c2cnn(-c3ccc(Cl)cc3)c2)c(C(F)(F)F)oc2c(O)c(O)ccc12 [KH-4-43, 3-(1-(4-chlorophenyl)-1H-pyrazol-4-yl)-7,8-dihydroxy-2-(trifluoromethyl)-4H-chromen-4-one]
- EC50 [1]: 10 µM
- Liver microsomes: t1/2 ([2]; Human): >8.33 h
- Liver microsomes: t1/2 ([2]; Rat): >8.33 h
- half-life [3]: > 5 h
- dose range inhibiting ubiquitination by CRL1/SCF [4]: ~30 µM

SMILES: O=c1c(-c2cnn(-c3ccccc3)c2)c(C(F)(F)F)oc2c(O)c(O)ccc12 [#33-11, 7,8-dihydroxy-3-(1-phenyl-1H-pyrazol-4-yl)-2-(trifluoromethyl)-4H-chromen-4-one]
- binding to ROC1-CUL4A CTD more effectively than ROC1-CUL1 CTD [5]: ~20 fold
- EC50 [6]: ~81 µM
- EC50 [7]: ~58 µM
- EC50 [8]: ~54 µM
- EC50 [9]: > 100 µM
- EC50 [10]: ~14 µM
- EC50 [11]: ~5 µM
- EC50 [12]: ~13 µM
- EC50 [13]: ~7 µM
- EC50 [14]: 14 µM
- EC50 [15]: ~78 µM
